From publication PMC11714206, “Massively Parallel Screening of Toll/Interleukin‐1 Receptor (TIR)‐Derived Peptides Reveals Multiple Toll‐Like Receptors (TLRs)‐Targeting Immunomodulatory Peptides” (Advanced Science, 2024)
Blank lines part the entries; values can stand above or below the sequence they belong to.

Molecular target: T1, MyD88^TIR (Homo sapiens, UniProt Q99836)
T1 construct: MyD88 (residues 148–296); 6xHis; made in house; host or cells: E. coli BL21 (DE3)
Assay: T‐Surf phage library (P8 and P3) selection against MyD88^TIR, four rounds, NGS read counts
Assay type: binding
Conditions: for P8_MyD88 Rank (after) / P8_MyD88 Rank (before): P8 library; for Population: P8_MyD88 pool: P8 T-Surf phage library, 4th round of selection against MyD88 TIR, share of NGS reads
Protocol: T‐Surf libraries were screened against the immobilized TIR domains of two major human TLR adaptor proteins, MAL^TIR and MyD88^TIR, allowing cross‐species selection of TIR‐binding motifs with 190 946 TIR‐derived peptides in a single binding assay (Scheme 1). Enriched phage pools from the fourth round of selection were analyzed using NGS after barcoding the peptide‐coding regions of the phage pools.
Phage display screening was performed by coating two wells of a 96‐well plate (Maxisorp, Thermo Fisher Scientific) with 100 µL of 5 µg mL^−1 TIR domains overnight; then, the coated wells were blocked with 200 µL of blocking buffer (0.2% BSA in PBS) and set aside for 1 h at 4 °C with gentle shaking. Next, 100 µL of the phage library was added to the wells and incubated for 1 h at room temperature (RT; 20 – 22 °C) with gentle shaking. The plate was washed four times with PBS containing 0.5% Tween‐20; the bound phages were eluted by adding 100 µL of 100 mM HCl to each well. The elute was neutralized with 10 µL of 1.0 M Tris‐HCl (pH 11.0). E. coli TG1 cells were grown to the log phase (A600 = ≈0.6), and 1 mL of the culture was incubated with 100 µL of the eluted phages for 30 min at 37 °C, with shaking at 200 rpm. Next, 1 µL of M13KO7 helper phages was added, followed by incubation for 45 min at 37 °C, with shaking. Subsequently, the cells were transferred to 25 mL of 2× yeast extract tryptone/carbenicillin/kanamycin medium and incubated overnight at 37 °C with shaking at 200 rpm. The amplified phages were precipitated with 20% PEG‐8000/2.5 M NaCl to be used for the next round of selection.
The naïve T‐Surf libraries in P8 and P3 and the enriched phage pools after four rounds were barcoded for NGS as previously described.^[ [59] ^] Briefly, 5 µL of the phage pool was used as a template for 20 cycles of a 50 µL PCR reaction using […] each of forward and reverse barcoded primers and PrimeSTAR Max DNA Polymerase. The PCR products were purified using Expin Gel SV (GeneAll). The NGS samples were quantified using qPCR, following the qPCR Quantification Protocol Guide (KAPA Library Quantification kits for Illumina Sequencing Platform), and qualified using the TapeStation High Sensitivity D1000 ScreenTape (Agilent Technologies). The indexed libraries were further sequenced by Macrogen (Seoul, Republic of Korea) using the NovaSeq platform (Illumina) with 100 bp paired‐end reads. The reads were demultiplexed by barcodes and filtered for an average Phred quality score of at least 30, followed by trimming the flanking consensus sequences using Cutadapt (version 2.3). Peptide sequence populations were analyzed according to the read counts.

[1] = selection against MyD88 TIR, rank by count after grouping
[2] = selection against MyD88 TIR, rank by count before grouping
[3] = 4R selection against MyD88, rank after grouping
[4] = 4R selection against MyD88, rank before grouping
[5] = P8_MyD88: rank by count after grouping
[6] = P8_MyD88: rank by count before grouping
[7] = selection against MyD88, rank after grouping
[8] = selection against MyD88, rank before grouping
[9] = P8_MyD88: rank by NGS read count after grouping
[10] = P8_MyD88: rank by NGS read count before grouping
[11] = selection against MyD88, rank by count after grouping
[12] = selection against MyD88, rank by count before grouping

T1 sequence (Q99836 148-296): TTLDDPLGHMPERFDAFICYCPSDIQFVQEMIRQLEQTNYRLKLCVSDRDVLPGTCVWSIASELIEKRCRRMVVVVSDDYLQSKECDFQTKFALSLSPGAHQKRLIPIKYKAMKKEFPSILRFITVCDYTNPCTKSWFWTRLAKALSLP

P8_MyD88 Rank (after) [1]: 261
P8_MyD88 Rank (before) [2]: 2737
Sequence: DPQDLDLFYERLVRLF

P8_MyD88 Rank (after) [3]: 673
P8_MyD88 Rank (before) [4]: 2739
Sequence: DPQDLDLFYERLVSMF

Rank (after) [5]: 428
Rank (before) [6]: 2840
Sequence: DPQDLDRFYERLLSLL

P8_MyD88 Rank (after) [3]: 670
P8_MyD88 Rank (before) [4]: 2842
Sequence: DPQDLDRSYERLVSLC

Rank (after) [5]: 461
Rank (before) [6]: 2817
Sequence: DPQDLDWCYERLVSRC

Rank (after) [5]: 117
Rank (before) [6]: 707
Sequence: DPQDLDWFFERLVSLL

P8_MyD88 Rank (after) [7]: 575
P8_MyD88 Rank (before) [8]: 2743
Sequence: DPQDLDWFLNVWLTW

Rank (after) [9]: 1012
Rank (before) [10]: 2747
Sequence: DPQDLDWFSERLVILF

P8_MyD88 Rank (after) [7]: 493
P8_MyD88 Rank (before) [8]: 2746
Sequence: DPQDLDWFWVRLIEAL

P8_MyD88 Rank (after) [1]: 270
P8_MyD88 Rank (before) [2]: 2751
Sequence: DPQDLDWFYARLVRLF

Rank (after) [5]: 420
Rank (before) [6]: 1088
Sequence: DPQDLDWFYDRLLYSLHVTE

P8_MyD88 Rank (after) [7]: 535
P8_MyD88 Rank (before) [8]: 2754
Sequence: DPQDLDWFYECPVSMF

Rank (after) [5]: 411
Rank (before) [6]: 2801
Sequence: DPQDLDWFYEHLFSQM

Rank (after) [5]: 114
Rank (before) [6]: 570
Sequence: DPQDLDWFYEHLVSLL

Rank (after) [9]: 882
Rank (before) [10]: 2782
Sequence: DPQDLDWFYERLASGI

Rank (after) [5]: 135
Rank (before) [6]: 720
Sequence: DPQDLDWFYERLASLL

P8_MyD88 Rank (after) [7]: 530
P8_MyD88 Rank (before) [8]: 2783
Sequence: DPQDLDWFYERLEPV

P8_MyD88 Rank (after) [1]: 269
P8_MyD88 Rank (before) [2]: 2858
Sequence: DPQDLDWFYERLFSQT

P8_MyD88 Rank (after) [1]: 267
P8_MyD88 Rank (before) [2]: 2763
Sequence: DPQDLDWFYERLFTQM

P8_MyD88 Rank (after) [7]: 549
P8_MyD88 Rank (before) [8]: 2787
Sequence: DPQDLDWFYERLISRILQ

Rank (after) [5]: 471
Rank (before) [6]: 2786
Sequence: DPQDLDWFYERLLS

Rank (after) [5]: 422
Rank (before) [6]: 2764
Sequence: DPQDLDWFYERLLSLS

P8_MyD88 Rank (after) [1]: 236
P8_MyD88 Rank (before) [2]: 467
Sequence: DPQDLDWFYERLLSR

Rank (after) [9]: 1005
Rank (before) [10]: 2779
Sequence: DPQDLDWFYERLVAC

Population: 0.0131%
Sequence: DPQDLDWFYERLVILF

Population: 0.00925%
Sequence: DPQDLDWFYERLVNLF

Rank (after) [5]: 98
Rank (before) [6]: 349
Sequence: DPQDLDWFYERLVNLL

P8_MyD88 Rank (after) [1]: 233
P8_MyD88 Rank (before) [2]: 716
Sequence: DPQDLDWFYERLVSL

Population: 0.02%
Sequence: DPQDLDWFYERLVSLFL

Rank (after) [5]: 99
Rank (before) [6]: 396
Sequence: DPQDLDWFYERLVSPL

Rank (after) [5]: 183
Rank (before) [6]: 466
Sequence: DPQDLDWFYERLVSQM

Rank (after) [9]: 915
Rank (before) [10]: 2794
Sequence: DPQDLDWFYERQVRLF

Rank (after) [5]: 106
Rank (before) [6]: 568
Sequence: DPQDLDWFYERQVSLL

P8_MyD88 Rank (after) [3]: 662
P8_MyD88 Rank (before) [4]: 2790
Sequence: DPQDLDWFYERREPA

P8_MyD88 Rank (after) [11]: 733
P8_MyD88 Rank (before) [12]: 2791
Sequence: DPQDLDWFYERRVCLF

Rank (after) [9]: 914
Rank (before) [10]: 2759
Sequence: DPQDLDWFYERVVGLF

Rank (after) [9]: 911
Rank (before) [10]: 2804
Sequence: DPQDLDWFYETSGEPD

Rank (after) [5]: 121
Rank (before) [6]: 724
Sequence: DPQDLDWFYKRLVSLL

P8_MyD88 Rank (after) [11]: 732
P8_MyD88 Rank (before) [12]: 2830
Sequence: DPQDLDWIYERLVCLF

Rank (after) [5]: 436
Rank (before) [6]: 2831
Sequence: DPQDLDWIYERLVSRF

P8_MyD88 Rank (after) [1]: 238
P8_MyD88 Rank (before) [2]: 2828
Sequence: DPQDLDWLYERLVRLF

Population: 0.00617%
Sequence: DPQDLDWLYERLVSLF

P8_MyD88 Rank (after) [7]: 552
P8_MyD88 Rank (before) [8]: 2816
Sequence: DPQDLDWLYERPVSQF

P8_MyD88 Rank (after) [1]: 271
P8_MyD88 Rank (before) [2]: 2825
Sequence: DPQDLDWVYERLVSLI

Rank (after) [9]: 916
Rank (before) [10]: 2845
Sequence: DPQDLECFYERRVSLF
